# Measurements published in patent publication US20090203683A1, “BICYCLIC HETEROCYCLES, PHARMACEUTICAL COMPOSITIONS CONTAINING THEM, THEIR USE, AND PROCESSES FOR PREPARING THEM” (BOEHRINGER INGELHEIM PHARMA GMBH & CO. KG, priority 2000, published 2009).
# Columns and labels:
# human EGF-R = biological target: T1, human EGF-R (Homo sapiens, UniProt P00533); assay: Inhibition of EGF-dependent proliferation of F/L-HERc cells (Cell Titer 96 Aqueous Non-Radioactive Cell Proliferation Assay); assay type: cell-based; conditions: F/L-HERc cells (murine IL-3-dependent line expressing human EGF-R), stimulated with EGF 20 ng/ml, 48 hours at 37° C., relative cell number as % of control
# T1 construct: expressed in transfected cells; host or cells: F/L-HERc cells (murine IL-3-dependent FDC-P1 cells transduced with retroviral vector LXSN carrying human EGF-R cDNA; packaging line GP+E86)
# T1 sequence (P00533 25-1210): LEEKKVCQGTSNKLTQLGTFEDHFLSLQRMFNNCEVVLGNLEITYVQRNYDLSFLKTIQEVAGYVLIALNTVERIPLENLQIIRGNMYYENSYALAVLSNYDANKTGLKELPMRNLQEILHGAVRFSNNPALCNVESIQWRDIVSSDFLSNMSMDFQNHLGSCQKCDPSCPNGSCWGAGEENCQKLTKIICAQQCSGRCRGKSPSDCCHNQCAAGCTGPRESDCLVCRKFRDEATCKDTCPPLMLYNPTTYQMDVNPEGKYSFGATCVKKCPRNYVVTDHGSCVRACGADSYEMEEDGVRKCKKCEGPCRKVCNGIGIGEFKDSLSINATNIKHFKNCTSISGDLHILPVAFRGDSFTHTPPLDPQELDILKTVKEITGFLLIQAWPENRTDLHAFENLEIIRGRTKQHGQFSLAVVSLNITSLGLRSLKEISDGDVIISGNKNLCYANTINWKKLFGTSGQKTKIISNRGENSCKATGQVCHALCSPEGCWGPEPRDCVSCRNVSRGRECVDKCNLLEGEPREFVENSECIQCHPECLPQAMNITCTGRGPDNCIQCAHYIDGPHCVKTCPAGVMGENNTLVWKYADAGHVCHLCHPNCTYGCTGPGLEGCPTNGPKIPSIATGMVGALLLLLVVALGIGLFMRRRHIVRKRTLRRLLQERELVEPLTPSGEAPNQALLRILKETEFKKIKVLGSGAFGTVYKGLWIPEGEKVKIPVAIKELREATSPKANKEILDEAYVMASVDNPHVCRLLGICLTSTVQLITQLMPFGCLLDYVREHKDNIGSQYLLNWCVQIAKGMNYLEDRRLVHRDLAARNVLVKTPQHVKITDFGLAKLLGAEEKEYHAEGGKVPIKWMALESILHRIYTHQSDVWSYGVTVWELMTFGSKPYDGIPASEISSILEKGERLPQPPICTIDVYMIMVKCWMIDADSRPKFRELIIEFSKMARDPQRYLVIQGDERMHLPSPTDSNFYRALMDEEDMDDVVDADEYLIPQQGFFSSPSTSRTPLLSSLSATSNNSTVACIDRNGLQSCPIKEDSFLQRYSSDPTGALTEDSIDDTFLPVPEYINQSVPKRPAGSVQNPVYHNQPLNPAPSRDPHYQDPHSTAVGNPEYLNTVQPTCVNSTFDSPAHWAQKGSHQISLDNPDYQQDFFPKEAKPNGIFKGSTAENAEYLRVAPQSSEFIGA
# Text: The biological properties of the new compounds were investigated as follows. […] A cell line of murine origin dependent on interleukin-3-(IL-3) which was genetically modified to express functional human EGF-R was used here. The proliferation of these cells known as F/L-HERc can therefore be stimulated either by murine IL-3 or by EGF (cf. T. von Rüden et al. in EMBO J. 7, 2749-2756 (1988) and J. H. Pierce et al. in Science 239, 628-631 (1988)). The starting material used for the F/L-HERc cells was the cell line FDC-P1, the production of which has been described by T. M. Dexter et al. in J. Exp. Med. 152, 1036-1047 (1980). Alternatively, however, other growth-factor-dependent cells may also be used (cf. for example, J. H. Pierce et al. in Science 239, 628-631 (1988); H. Shibuya et al. in Cell 70, 57-67 (1992) and W. S. Alexander in EMBO J. 10, 3683-3691 (1991)). For expressing the human EGF-R cDNA (cf. A. Ullrich et al. in Nature 309, 418-425 (1984)) recombinant retroviruses were used as described by T. von Rüden et al., EMBO J. 7, 2749-2756 (1988), except that the retroviral vector LXSN (cf. A. D. Miller et al. in BioTechniques 7, 980-990 (1989)) was used for the expression of the EGF-R cDNA and the line GP+E86 (cf. D. Markowitz et al. in J. Virol. 62, 1120-1124 (1988)) was used as the packaging cell.
# The test was performed as follows. F/L-HERc cells were cultivated in RPMI/1640 medium (BioWhittaker), supplemented with 10% fetal calf serum (FCS, Boehringer Mannheim), 2 mM glutamine (BioWhittaker), standard antibiotics and 20 ng/ml of human EGF (Promega), at 37° C. and 5% CO2—In order to investigate the inhibitory activity of the compounds according to the invention, 1.5×10^4 cells per well were cultivated in triplicate in 96-well dishes in the above medium (200 μl), the cell proliferation being stimulated with either EGF (20 ng/ml) or murine IL-3. The IL-3 used was obtained from culture supernatants of the cell line X63/0 mL-3 (cf. H. Karasuyama et al. in Eur. J. Immunol. 18, 97-104 (1988)). The compounds according to the invention were dissolved in 100% dimethylsulfoxide (DMSO) and added to the cultures in various dilutions, the maximum DMSO concentration being 1%. The cultures were incubated for 48 hours at 37° C.
# In order to determine the inhibitory activity of the compounds according to the invention the relative cell number was measured in O.D. units using the Cell Titer 96™ Aqueous Non-Radioactive Cell Proliferation Assay (Promega). The relative cell number was calculated as a percentage of the control (F/LHERc cells without inhibitor) and the concentration of active substance which inhibits the proliferation of the cells by 50% (IC50) was derived therefrom.
Compound,IC50 (human EGF-R),melting point
"CCOC(=O)CN1CCC[C@H]1COc1cc2c(Nc3cccc(Br)c3)ncnc2cc1OC [1(2), (s)-4-[(3-bromophenyl)amino]-6-({1-[(ethoxycarbonyl)methyl]pyrrolidin-2-yl}methoxy)-7-methoxyquinazoline]",0.02 µM,
"CCOC(=O)CN1CCN(CC(O)COc2cc3c(Nc4cccc(Br)c4)ncnc3cc2OC)CC1 (centres unmarked) [Example 4, 4-[(3-bromophenyl)amino]-6-(3-{4-[(ethoxycarbonyl)methyl]piperazin-1-yl}-2-hydroxypropyloxy)-7-methoxyquinazoline]",0.033 µM,118 to 122 °C
"COC(=O)CN1CCN(CCCOc2cc3c(Nc4ccc(F)c(Cl)c4)ncnc3cc2OC)CC1 [Example 1, 4-(3-chloro-4-fluorophenylamino)-6-{3-[4-(methoxycarbonylmethyl)-1-piperazinyl]propyloxy}-7-methoxyquinazoline]",0.046 µM,
"CCOC(=O)CN(C)CCOc1cc2c(Nc3cccc(Br)c3)ncnc2cc1OC [3(1), 4-[(3-bromophenyl)amino]-6-(2-{N-[(ethoxycarbonyl)methyl]-N-methylamino}ethoxy)-7-methoxyquinazoline]",0.1 µM,
"CCOC(=O)CN(C)CCCOc1cc2c(Nc3ccc(F)c(Cl)c3)ncnc2cc1OC [Example 2, 4-(3-chloro-4-fluorophenylamino)-6-{3-[N-(ethoxycarbonylmethyl)-N-methylamino]propyloxy}-7-methoxyquinazoline]",0.23 µM,
"COC(=O)[C@@H]1CCCN1CCCOc1cc2c(Nc3cccc(Br)c3)ncnc2cc1OC [2(1), (s)-4-[(3-bromophenyl)amino]-6-[3-(2-methoxycarbonylpyrrolidin-1-yl)propyloxy]-7-methoxyquinazoline]",0.039 µM,

# The remaining compounds from weak to strong by IC50 (human EGF-R), led by results:
IC50 (human EGF-R),melting point,Compound
0.077 µM,,"COC(=O)CC(CC(=O)OC)N1CCN(CCOc2cc3c(Nc4cccc(Br)c4)ncnc3cc2OC)CC1 [3(4), 4-[(3-bromophenyl)amino]-6-[2-(4-{1-[(methoxycarbonyl)methyl]-2-(methoxycarbonyl)ethyl}piperazin-1-yl)ethoxy]-7-methoxyquinazoline]"
0.07 µM,,"CCOC(=O)CN(CCOc1cc2c(Nc3cccc(Br)c3)ncnc2cc1OC)CC(=O)OCC [3(2), 4-[(3-bromophenyl)amino]-6-(2-{N,N-bis[(ethoxycarbonyl)methyl]amino}ethoxy)-7-methoxyquinazoline]"
0.045 µM,155 °C,"CCOC(=O)CN1CCN(CCOc2cc3c(Nc4cccc(Br)c4)ncnc3cc2OC)CC1 [Example 3, 4-[(3-bromophenyl)amino]-6-(2-{4-[(ethoxycarbonyl)methyl]piperazin-1-yl}ethoxy)-7-methoxyquinazoline]"
